The test system of one experiment is Human C3-[…]. The experiment can be described thus: C3 deposition assay, human serum on mannan-coated plates. The note with it: average IC50, read-out: Human C3-DEPOSITION SERUM IC50. It counts as biochemical. The procedure: (§1) 3. C3 Deposition Assay (Human, Rat, Mouse, Dog, Mini-Pig)
(§2) The C3 deposition assay was conducted essentially as described (reference). Multi well plates (Greiner-Nunc 384 Maxi Sorp #464718) were coated over night with Mannan from Saccharomyces cerevisiae (Sigma M7504, 10 μg/mL in 0.05 M carbonate-bicarbonate buffer, pH 9.6) at 4° C. Wells were washed three times with TBS and subsequently incubated for 2 hours with 50 μL of 1% bovine serum albumin (BSA) in Tris-buffered saline (TBS) at 37° C. in order to block non-specific binding. After this step and each of the following incubation steps wells were washed three times with C3 wash buffer (TBS; 0.05% Tween 20; 5 mM CaCl2). […] When appropriately developed the color reaction was stopped by addition of 25 μL of stop solution (Sigma S5814) and quantified on a photometer by measuring absorption at a wavelength of 450 nm. Antibodies were diluted in C3 wash buffer supplemented with 0.5% BSA.

The target of a further experiment is T1, rat MASP2 (Rattus norvegicus, UniProt Q9JJS8).
T1 construct: Ig-kappa secretion signal (N, cleaved yes); made in house; host or cells: HEK293 (ATCC No. CRL-1573)
T1 sequence (Q9JJS8 296-443): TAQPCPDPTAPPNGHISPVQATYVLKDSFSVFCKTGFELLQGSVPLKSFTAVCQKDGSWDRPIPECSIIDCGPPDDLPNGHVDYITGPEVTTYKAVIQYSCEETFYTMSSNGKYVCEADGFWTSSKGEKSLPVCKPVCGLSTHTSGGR
T1 sequence (Q9JJS8 444-685): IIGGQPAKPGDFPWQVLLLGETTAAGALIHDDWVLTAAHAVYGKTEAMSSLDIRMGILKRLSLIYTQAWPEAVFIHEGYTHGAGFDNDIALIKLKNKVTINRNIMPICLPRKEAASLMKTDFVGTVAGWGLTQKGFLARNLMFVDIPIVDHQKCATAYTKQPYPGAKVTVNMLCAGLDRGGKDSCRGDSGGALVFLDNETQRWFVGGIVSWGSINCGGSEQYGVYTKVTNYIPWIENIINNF
The experiment can be described thus: Biochemical rat MASP2 assay (FRET substrate). The conditions noted are these: average IC50; recombinant rat MASP2, FRET substrate. The source says: 4. Biochemical Rat MASP-1 and MASP-2 Assay
4.1 Recombinant Expression and Protein Production of Recombinant Human and Rat MASP1 and MASP2 Active Proteases.
The MASP1 or MASP2 expression vectors were transfected into the HEK293 (ATCC No. CRL-1573) cell line using Lipofectamine LTX® Reagent (Thermo-Fischer), as described by the manufacturer. The mature form of the recombinant rat MASP1 and MASP2 proteases were secreted into the culture medium. The MASP1 and MASP2 proteins were purified from the conditioned media by affinity chromatography on Ni-NTA Superflow resin (Qiagen) as described by the manufacturer.
4.3 Biochemical Rat MASP2 Assay.
Recombinant rat MASP2 enzyme produced in the HEK 293 cells was diluted in the reaction buffer (50 mM HEPES pH 8,0; 100 mM NaCl; 0.01% CHAPS; 0.5 mM Gluthathione) to the concentration of 20 nM and 25 μl was transferred into each single well of 384-well white microtiter plate (Greiner Bio One 781075). 1 μl of the inhibitor compound solution (dissolved in DMSO, at the corresponding concentration) or pure DMSO as a control was added to the same wells. The enzymatic reaction was initiated by addition of 25 μl of 30 μM solution of the FRET substrate Abz-IEGRTSED-(Lys)Dnp-NH2 (SEQ ID NO: 9); (ABZ—2-aminobenzoyl; DNP_2,4-dinitrophenyl; custom synthesis by Jerini Peptide Technologies, Berlin) in the reaction buffer. The microtiter plate was incubated for 60-120 min at the temperature of 32 C. The increase of fluorescence intensity was measured in appropriate fluorescence plate reader (e.g. TECAN Ultra) using excitation wavelength of 320 nm and emission wavelength of 420 nm. IC50 values were calculated from percentage of inhibition of rat […] activity as a function of test compound concentration.

A further experiment has as its system rat C3-[…]. The experiment can be described thus: C3 deposition assay, rat serum on mannan-coated plates. Format: biochemical. The conditions noted are these: average IC50. The procedure: as §1, §2

Counter-ions that a name gives are not always drawn. Numbered stars: 1 amine (or outer) side, 2 acyl side, 3 side chain; on linkers, the order of the positions; unused ones are H or OH. Bridge positions count the residues as written; N and C are the ends. Square brackets hold non-standard residues; d marks the D form. Peptide text beside a SMILES is read from it. * marks the point of attachment. X1 = O=C(C1[C@H]2CCCC[C@H]2C[C@H]1C(=O)[*:2])[C@@H]1CCCN1[*:1]; Oic = O=C(O)[C@@H]1C[C@@H]2CCCC[C@@H]2N1; Pen = CC(C)(S)[C@H](N)C(=O)O; X2 = N[C@@H](CN*)C(=O)O; Sar = CNCC(=O)O

As for `CC[C@H](C)[C@H](NC(=O)[C@H](C)NC)C(=O)N[C@H]1CSSC(C)(C)[C@@H](C(=O)N[C@H](C(=O)N2CCC[C@H]2C(N)=O)[C@@H](C)CC)NC(=O)[C@H]([C@@H](C)CC)NC(=O)[C@@H]2C[C@@]3(CN2C(=O)[C@@H]2CCCN2C(=O)[C@@H](CC(C)(C)C)NC(=O)[C@H](CO)NC(=O)[C@H](CCCNC(=N)N)NC(=O)[C@H](CO)NC1=O)CC3(F)F` (single isomer, unassigned; enantiomer 1) [Example 443], the IC50 turned out to be 25.2 nM with Human C3-[…] and 4.7 nM on rat MASP2.

As for `CC[C@H](C)[C@H](NC(=O)CNC)C(=O)N[C@H]1CSSC(C)(C)[C@@H](C(=O)N[C@H](C(=O)N2CCC[C@H]2C(N)=O)[C@@H](C)CC)NC(=O)[C@H]([C@@H](C)CC)NC(=O)[C@@H]2C[C@@H]3CCCC[C@@H]3C2C(=O)[C@@H]2CCCN2C(=O)[C@H](CC(C)C)NC(=O)[C@H](CO)NC(=O)[C@H](CCCNC(=N)N)NC(=O)[C@H](CO)NC1=O` (stereo partly shown) [Example 67, ((N-Me)G)-IC+SRSLP-(Oic)-I-(Pen)+IP-NH2 (HCl Salt)] (H-[Sar]ICSRSL[X1]I[Pen]IP-NH2; disulfide 3-10), the results for the IC50 with Human C3-[…] and at rat MASP2 were 121 nM and 36 nM, respectively.

For `CC[C@H](C)[C@H](NC(=O)CNC)C(=O)N[C@H]1CSSC(C)(C)[C@@H](C(=O)N[C@H](C(=O)N2CCC[C@H]2C(N)=O)[C@@H](C)CC)NC(=O)[C@H]([C@@H](C)CC)NC(=O)[C@@H]2C[C@@H]3CCCC[C@@H]3N2C(=O)[C@@H]2CCCN2C(=O)[C@H](CC(C)C)NC(=O)[C@H](CO)NC(=O)[C@H](CCCNC(=N)N)NC(=O)[C@H](CO)NC1=O` [Example 109, ((N-Me)G)-IC+SRSLP-(Oic)-I-(Pen)+IP-NH2] (H-[Sar]ICSRSLP[Oic]I[Pen]IP-NH2; disulfide 3-11), the IC50 in the experiment on Human C3-[…] was 135 nM; on rat MASP2, 42 nM.

Take `[2H][C@@H]1[C@H]([2H])CN2C(=O)[C@H](CC(C)C)NC(=O)[C@H](CO)NC(=O)[C@H](CCCNC(=N)N)NC(=O)[C@H](CO)NC(=O)[C@@H](NC(=O)[C@@H](NC(=O)[C@H](C)N)[C@@H](C)CC)CSSC(C)(C)[C@@H](C(=O)N[C@H](C(=O)N3CCC[C@H]3C(=O)N[C@@H](CC(=O)O)C(=O)O)[C@@H](C)CC)NC(=O)[C@H]([C@@H](C)CC)NC(=O)[C@@H]3C[C@@H]4CCCC[C@@H]4N3C(=O)[C@H]12` [Example 142, N-[(1R,2S,6S,9S,12S,15S,18R,23R,26S,28aS,35aS)-18-[(L-alanyl-L-isoleucyl)amino]-26-[(2S)-butan-2-yl]-12-(3-carbamimidamidopropyl)-9,15-bis(hydroxymethyl)-22,22-dimethyl-6-(2-methylpropyl)-5,8,11,14,17,25,28,35-octaoxo(1,2-^2H2)dotriacontahydro-1H,5H,22H-pyrrolo[2′,1′:13,14][1,2,5,8,11,14,17,20,23,26]dithiaoctaazacyclononacosino[11,10-a]indole-23-carbonyl]-L-isoleucyl-L-prolyl-L-aspartic Acid]: the results for the IC50 in the experiment with Human C3-[…], on rat MASP2 and in the experiment with rat C3-[…] were 12.4 nM, 17.1 nM and 472 nM, respectively.

As for `CC[C@H](C)[C@H](NC(=O)[C@H](C)N)C(=O)N[C@H]1CSSC[C@@H](C(=O)N[C@H](C(=O)N2CCC[C@H]2C(=O)N[C@@H](CC(=O)O)C(N)=O)[C@@H](C)CC)N(C)C(=O)[C@H]([C@@H](C)CC)NC(=O)[C@@H]2C[C@@H]3CCCC[C@@H]3N2C(=O)[C@@H]2CCCN2C(=O)[C@H](CC(C)C)NC(=O)[C@H](CO)NC(=O)[C@H](CCCNC(=N)N)NC(=O)[C@H](CO)NC1=O` [Example 185, AIC+SRSLP-(Oic)-I-((N-Me)C)+IPD-NH2], the IC50 with Human C3-[…] came out at 6.74 nM; on rat MASP2 it was 10.9 nM; in the experiment on rat C3-[…] it was 236 nM.

Consider `CC[C@H](C)[C@H](NC(=O)CNC)C(=O)N[C@H]1CSSC(C)(C)[C@@H](C(=O)N[C@H](C(=O)N2CCC[C@H]2C(=O)N[C@@H](CC(=O)O)C(=O)N[C@@H](CC(=O)O)C(=O)O)[C@@H](C)CC)NC(=O)[C@H]([C@@H](C)CC)NC(=O)[C@@H]2C[C@@H]3CCCC[C@@H]3N2C(=O)[C@@H]2CCCN2C(=O)[C@H](CC(C)C)NC(=O)[C@H](CO)NC(=O)[C@H](CCCNC(=N)N)NC(=O)[C@H](CO)NC1=O` [Example 466, ((N-Me)G)-IC+SRSLP-(Oic)-I-(Pen)+IPDD-OH] (H-[Sar]ICSRSLP[Oic]I[Pen]IPDD-OH; disulfide 3-11), for which the values for the IC50 in the experiment on Human C3-[…] and on rat MASP2 were 71.6 nM and 72 nM, respectively.

On to `CC[C@H](C)[C@H](NC(=O)CNC)C(=O)N[C@H]1CSSC(C)(C)[C@@H](C(=O)N[C@H](C(=O)N2CCC[C@H]2C(=O)NC[C@H](N)C(=O)O)[C@@H](C)CC)NC(=O)[C@H]([C@@H](C)CC)NC(=O)[C@@H]2C[C@@H]3CCCC[C@@H]3N2C(=O)[C@@H]2CCCN2C(=O)[C@H](CC(C)C)NC(=O)[C@H](CO)NC(=O)[C@H](CCCNC(=N)N)NC(=O)[C@H](CO)NC1=O` [Example 467] (H-[Sar]ICSRSLP[Oic]I[Pen]IP-X2; disulfide 3-11), for which the concentration for half-maximal inhibition (IC50) with Human C3-[…] stood at 41.5 nM; on rat MASP2, 70 nM.

These data come from US11667675B2, “MASP inhibitory compounds and uses thereof” (Bayer Aktiengesellschaft, priority 2019, dated 2023).
